Marks after values point to notes of the source that are not given here. Primed or numbered codes have the meaning given here. Peptide text beside a SMILES is read from it. * marks the point of attachment. Cholyl = C[C@H](CCC(=O)*)[C@H]1CC[C@H]2[C@@H]3[C@H](O)C[C@@H]4C[C@H](O)CC[C@]4(C)[C@H]3C[C@H](O)[C@]12C; Adp″ = aminoethyldibenzofuranylpropanoic acid, NCCc1cccc2c1oc1c(CCC(=O)*)cccc12; NMeV = CN[C@H](C(=O)O)C(C)C; CA = not defined here
Assays:
[1] = biological target: T1, Aβ1-40 (Homo sapiens, UniProt P05067); assay: Nucleation assay (turbidity, A405 nm); format: biochemical;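 further: synthetic Aβ monomer polymerization followed by turbidity in 96-well plates with continuous shaking, read every 15 minutes over 5 hours, compared against wells lacking test compound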
T1 construct: (β-AP1-40) was obtained commercially from Bachem (Torrance, Calif.); purchased Bachem (Torrance, Calif.)
T1 sequence (P05067 672-711): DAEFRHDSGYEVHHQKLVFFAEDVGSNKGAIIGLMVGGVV
Text: The nucleation assay is employed to determine the ability of test compounds to alter (e.g. inhibit) the early events in formation of β-AP fibers from monomeric β-AP. […] The time delay before polymerization of β-AP monomer can be quantified as well as the extent of formation of insoluble fiber by light scattering (turbidity). Polymerization reaches equilibrium when the maximum turbidity reaches a plateau. The turbidity of a solution of natural β-AP in the absence or presence of various concentrations of a β-amyloid modulator compound is determined by measuring the apparent absorbance of the solution at 405 nm (A405 nm) over time. The threshold of sensitivity for the measurement of turbidity is in the range of 15-20 μM β-AP. […] This assay can be performed using stirring or shaking to accelerate polymerization, thereby increasing the speed of the assay. Moreover the assay can be adapted to a 96-well plate format to screen multiple compounds.
HFIP-solubilized peptide is sonicated in a waterbath sonicator for 5 mM at highest setting, then evaporated to dryness under a stream of argon. The peptide film is resuspended in anhydrous dimethylsulfoxide (DMSO) at a concentration of 6.9 mg/ml (25× concentration), sonicated for 5 mM as before, then filtered through a 0.2 micron nylon syringe filter (VWR cat. No. 28196-050). Test compounds are dissolved in DMSO at a 100× concentration. […] Ten microliters of the mixture is then added to the bottom of a well of a Corning Costar ultra low binding 96-well plate (Corning Costar, Cambridge Mass.; cat. No. 2500). Ninety microliters of water is added to the well, the plate is shaken on a rotary shaken at a constant speed at room temperature for 30 seconds, an additional 100 μl of 2×PTL buffer (20 mM NaH2PO4, 300 mM NaCl, pH 7.4) is added to the well, the plate is reshaken for 30 seconds and a baseline (t=0) turbidity reading is taken by measuring the apparent absorbance at 405 nm using a Bio-Rad Model 450 Microplate Reader. The plate is then returned to the shaker and shaken continuously for 5 hours. Turbidity readings are taken at 15 minute intervals.
β-amyloid aggregation in the absence of any modulators results in enhanced turbidity of the natural β-AP solution (i.e., an increase in the apparent absorbance at 405 nm over time).
Accordingly a fold increase in lag time of 1.0 indicates no change in lag time, whereas numbers >1.0 indicate an increase in lag time. The “% inhibition of plateau”, which is a measure of the ability of the compound to decrease the total amount of aggregation, refers to the reduction of the final turbidity in the presence of the test compound expressed as a percent of the control without the test compound.

[2] = biological target: T1, Aβ1-40; assay: Seeded extension assay (thioflavin T fluorescence); format: biochemical; settings: Table V; 25 mole % inhibitor
Protocol: The seeded extension assay can be employed to measure the rate of Aβ fiber formed in a solution of Aβ monomer following addition of polymeric Aβ fiber “seed”. The ability of test compounds to prevent further deposition of monomeric Aβ to previously deposited amyloid is determined using a direct indicator of β-sheet formation using fluorescence. In contrast with the nucleation assay, the addition of seed provides immediate nucleation and continued growth of preformed fibrils without the need for continuous mixing, and thus results in the absence of a lag time before polymerization starts. Since this assay uses static polymerization conditions, the activity of positive compounds in the nucleation assay can be confirmed in this second assay under different conditions and with an additional probe of amyloid structure.
In the seeded extension assay, monomeric Aβ140 is incubated in the presence of a “seed” nucleus (approximately ten mole percent of Aβ that has been previously allowed to polymerize under controlled static conditions). Samples of the solution are then diluted in thioflavin T (Th-T). The polymer-specific association of Th-T with Aβ produces a fluorescent complex that allows the measurement of the extent of fibril formation (Levine, H. (1993) Protein Science 2:404-410). In particular, association of Th-T with aggregated β-AP, but not monomeric or loosely associated β-AP, gives rise to a new excitation (ex) maximum at 450 nm and an enhanced emission (em) at 482 nm, compared to the 385 nm (ex) and 445 nm (em) for the free dye. Small aliquots of the polymerization mixture contain sufficient fibril to be mixed with Th-T to allow the monitoring of the reaction mixture by repeated sampling. A linear growth curve is observed in the presence of excess monomer. The formation of thioflavin T responsive β-sheet fibrils parallels the increase in turbidity observed using the nucleation assay.
To prepare the stock seed, 1 ml of the Aβ monomer preparation, is incubated for approximately 8 days at 37° C. and sheared sequentially through an 18, 23, 26 and 30 gauge needle 25, 25, 50, and 100 times respectively. 2 μl samples of the sheared material is taken for fluorescence measurements after every 50 passes through the 30 gauge needle until the fluorescence units (FU) plateau (approx. 100-150×). Test compounds are prepared by dissolving an appropriate amount of test compound in 1×PBS to a final concentration of 1 mM (10× stock). If insoluble, the compound is dissolved in 1/10 volume of DMSO and diluted in 1×PBS to 1 mM. A further 1/10 dilution is also prepared to test each candidate at both 100 μM and 10 μM.
To perform the seeded extension assay, each sample is set up with 50 μl of 200 μM monomer, 125 FU sheared seed (a variable quantity dependent on the batch of seed, routinely 3-6 μl) and 10 μl of 10× modulator solution. The sample volume is then adjusted to a final volume of 100 μl with 1×PBS. Two concentrations of each modulator typically are tested: 100 μM and 10 μM, equivalent to a 1:1 and a 1:10 molar ratio of monomer to modulator. The controls include an unseeded reaction to confirm that the fresh monomer contains no seed, and a seeded reaction in the absence of any modulators, as a reference to compare against candidate modulators. The assay is incubated at 37° C. for 6 h, taking 2 μl samples hourly for fluorescence measurements. To measure fluorescence, a 2 μl sample of Aβ is added to 400 μl of Thioflavin-T solution (50 mM Potassium Phosphate […] pH 7.5). The samples are vortexed and the fluorescence is read in a 0.5 ml micro quartz cuvette at EX 450 nm and EM 482 nm (Hitachi 4500 Fluorimeter).

[3] = Table V, 100 mole % inhibitor relative to Aβ1-40
[4] = Table V, 100 mole % inhibitor, read-out: % Inucl'n (percent reduction in maximum observed turbidity)

Molecule | ΔLag (ratio of lag time with test compound to lag time of control) [1, 3] | % Inucl'n (percent reduction in maximum observed turbidity) ([1]; Table V, 100 mole % inhibitor) | % Iext'n (percent reduction of thioflavin-T fluorescence) [2] | also measured
CC(C)C[C@H](NC(=O)[C@H](CCCCN)NC(=O)[C@H](CCC(N)=O)NC(=O)[C@H](Cc1c[nH]cn1)NC(=O)[C@H](Cc1c[nH]cn1)NC(=O)CC[C@@H](C)[C@H]1CC[C@H]2[C@@H]3[C@H](O)C[C@@H]4C[C@H](O)CC[C@]4(C)[C@H]3C[C@H](O)[C@]12C)C(=O)N[C@H](C(=O)N[C@@H](Cc1ccccc1)C(=O)N[C@@H](Cc1ccccc1)C(=O)O)C(C)C [PPI-347, cholyl-Aβ13-20] (Cholyl-HHQKLVFF-OH) | – | – | – | Fold Increase in Lag Time ([1]; Table III, 33 mole %): 2.6 fold; Fold Increase in Lag Time ([1]; Table IV, 10 mole %): 2.2 fold
CC(C)C[C@H](NC(=O)[C@H](CCCCN)NC(=O)[C@H](CCC(N)=O)NC(=O)[C@H](Cc1c[nH]cn1)NC(=O)CC[C@@H](C)[C@H]1CC[C@H]2[C@@H]3[C@H](O)C[C@@H]4C[C@H](O)CC[C@]4(C)[C@H]3C[C@H](O)[C@]12C)C(=O)N[C@H](C(=O)N[C@@H](Cc1ccccc1)C(=O)N[C@@H](Cc1ccccc1)C(=O)O)C(C)C [PPI-348, cholyl-Aβ14-20] (Cholyl-HQKLVFF-OH) | – | – | – | Fold Increase in Lag Time ([1]; Table III, 33 mole %): 2.0 fold; inhibition at 33 mol % ([1]; Table V, 33 mol % inhibitor, read-out: % Inucl'n (percent reduction in maximum observed turbidity)): 70%; ΔLag (ratio of lag time with test compound to lag time of control) ([1]; Table V, 33 mole % inhibitor): 2.0
C[C@H](NC(=O)[C@H](C)NC(=O)[C@H](C)NC(=O)[C@H](C)NC(=O)[C@H](C)NC(=O)CC[C@@H](C)[C@H]1CC[C@H]2[C@@H]3[C@H](O)C[C@@H]4C[C@H](O)CC[C@]4(C)[C@H]3C[C@H](O)[C@]12C)C(=O)O [PPI-365, Cholyl-penta-alanine] | 0.8 | – | – | Fold Increase in Lag Time ([1]; Table IV, 100 mole %): ~1 fold; inhibition at 100 mol % [1, 4]: -7%
CC(C)C[C@H](NC(=O)[C@H](CCCCN)NC(=O)[C@H](CCC(N)=O)NC(=O)CC[C@@H](C)[C@H]1CC[C@H]2[C@@H]3[C@H](O)C[C@@H]4C[C@H](O)CC[C@]4(C)[C@H]3C[C@H](O)[C@]12C)C(=O)N[C@H](C(=O)N[C@@H](Cc1ccccc1)C(=O)O)C(C)C [PPI-366] (Cholyl-QKLVF-OH) | 3.1 | – | – | Fold Increase in Lag Time ([1]; Table IV, 10 mole %): 1.6 fold; Fold Increase in Lag Time ([1]; Table IV, 100 mole %): 3.1 fold; inhibition at 100 mol % [1, 4]: -23%
CC(C)C[C@H](NC(=O)[C@H](CCCCN)NC(=O)CC[C@@H](C)[C@H]1CC[C@H]2[C@@H]3[C@H](O)C[C@@H]4C[C@H](O)CC[C@]4(C)[C@H]3C[C@H](O)[C@]12C)C(=O)N[C@H](C(=O)N[C@@H](Cc1ccccc1)C(=O)N[C@@H](Cc1ccccc1)C(=O)O)[C@@H](C)O [PPI-369] (Cholyl-KLTFF-OH) | 1.1 | – | – | Fold Increase in Lag Time ([1]; Table IV, 100 mole %): ~1 fold; inhibition at 100 mol % [1, 4]: -16%
CC(C)C[C@H](NC(=O)[C@H](CCCCN)NC(=O)CC[C@@H](C)[C@H]1CC[C@H]2[C@@H]3[C@H](O)C[C@@H]4C[C@H](O)CC[C@]4(C)[C@H]3C[C@H](O)[C@]12C)C(=O)N[C@H](C(=O)N[C@@H](C)C(=O)N[C@@H](Cc1ccccc1)C(=O)O)C(C)C [PPI-370, cholyl-Aβ16-20 Phe19->Ala] (Cholyl-KLVAF-OH) | 2.6 | – | – | Fold Increase in Lag Time ([1]; Table IV, 100 mole %): 2.6 fold; inhibition at 100 mol % [1, 4]: 73%
CC(C)C[C@H](NC(=O)[C@@H](N)CCCCN)C(=O)N[C@H](C(=O)N[C@@H](Cc1ccccc1)C(=O)N[C@@H](Cc1ccccc1)C(=O)O)C(C)C [PPI-377, Aβ16-20] | – | – | – | inhibition at 100 mol % [1, 4]: 0%
CC(C)C[C@H](NC(=O)[C@@H](N)CCCCN)C(=O)N[C@H](C(=O)N[C@@H](Cc1ccccc1)C(=O)N[C@@H](Cc1ccccc1)C(N)=O)C(C)C [PPI-387] | 1.3 | −9% | 39% | –
CC(C)C[C@H](N)C(=O)N[C@H](C(=O)N[C@@H](Cc1ccccc1)C(=O)N[C@@H](Cc1ccccc1)C(=O)N[C@@H](C)C(N)=O)C(C)C [PPI-405] | 1.3 | 11% | 70% | –
PPI-315: CA-HQKLVFF-nh2 (N-terminal CA cap; C-terminal amide) | – | – | – | % Inucl'n (percent reduction in maximum observed turbidity) ([1]; Table V, 33 mol % inhibitor): 5** %
PPI-380: CA-LVFF-oh | – | – | 51% | % Inucl'n (percent reduction in maximum observed turbidity) ([1]; Table V, 33 mol % inhibitor): 72** %; ΔLag (ratio of lag time with test compound to lag time of control) ([1]; Table V, 33 mole % inhibitor): 1.8
PPI-392: CA-VFFA-oh ({CA}-VFFA-OH; reading uncertain; also: printed as CA-VFFA-oh) | 2.0 | 76% | 10% | –
PPI-393: CA-LVF-oh | 1.3 | 1% | 0% | –
PPI-394: CA-VFF-oh ({CA}-Val-Phe-Phe-OH; reading uncertain; also: printed as CA-VFF-oh) | 1.8 | 55% | 0% | –
PPI-395: CA-FFA-oh ({CA}-Phe-Phe-Ala-OH; reading uncertain; also: printed as CA-FFA-oh) | 1.0 | 51% | 6% | –
PPI-403: h-DDIII(N-Me-Val)DLL(Adp)-HQKLVFF-oh ({H2N-Asp-Asp-Ile-Ile-Ile-NMeV-Asp-Leu-Leu-Adp″}-HQKLVFF-OH) | 1.4 | −75% | – | –
PPI-407: CA-LVFFK-oh | – | – | – | % Inucl'n (percent reduction in maximum observed turbidity) ([1]; Table V, 33 mol % inhibitor): 100** %
PPI-418: h-(Aic)-LVFFA-oh | – | – | – | % Inucl'n (percent reduction in maximum observed turbidity) ([1]; Table V, 33 mol % inhibitor): 100** %
PPI-429: CA-FFV-oh ({CA}-Phe-Phe-Val-OH; reading uncertain; also: printed as PPI-429: CA-FFV-oh) | 2.2 | −33% | 7% | –
PPI-430: CA-FFVL-oh ({CA}-FFVL-OH; reading uncertain; also: printed as PPI-430: CA-FFVL-oh) | 4.1 | 33% | 75% | –
PPI-438: CA-GFF-oh ({CA}-Gly-Phe-Phe-OH; reading uncertain; also: printed as PPI-438: CA-GFF-oh) | 1.0 | 0% | – | –

Continued, in another order:

ΔLag (ratio of lag time with test compound to lag time of control) [1, 3] | % Inucl'n (percent reduction in maximum observed turbidity) ([1]; Table V, 100 mole % inhibitor) | % Iext'n (percent reduction of thioflavin-T fluorescence) [2] | Molecule | also measured
1.3 | – | – | CC(C)C[C@H](NC(=O)[C@H](CCCCN)NC(=O)CCCC[C@@H]1SC[C@@H]2NC(=N)N[C@@H]21)C(=O)N[C@H](C(=O)N[C@@H](Cc1ccccc1)C(=O)N[C@@H](Cc1ccccc1)C(=O)O)C(C)C [PPI-374, iminobiotinyl-Aβ16-20] | Fold Increase in Lag Time ([1]; Table IV, 100 mole %): 1.3 fold; inhibition at 100 mol % [1, 4]: 86%
– | 15% | – | CC(C)C[C@H](N)C(=O)N[C@H](C(=O)N[C@@H](Cc1ccccc1)C(=O)N[C@@H](Cc1ccccc1)C(=O)N[C@@H](C)C(=O)O)C(C)C [PPI-386] | –
– | −5% | – | CC(C)C[C@H](NC(=O)OC(C)(C)C)C(=O)N[C@H](C(=O)N[C@@H](Cc1ccccc1)C(=O)N[C@@H](Cc1ccccc1)C(=O)N[C@@H](C)C(=O)O)C(C)C [PPI-435] | –
